Source: the METLIN SMRT retention time set (Domingo-Almenara et al. 2019)

Assay: gradient 5% acetonitrile 3 min, to 50% in 2 min, to 85% in 15 min, held 3 min, 100 µL/min
Conditions: column: Zorbax Extend-C18 2.1 x 50 mm; eluents: water / acetonitrile, 0.1% formic acid
Outline: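 Values are retention times taken from adduct peaks that software picked and an analyst inspected. The pure standards were run as mixtures of ~100 molecules on HPLC linked to a quadrupole time-of-flight mass spectrometer, in positive and negative ionization mode. A Zorbax Extend-C18 column (2.1 × 50 mm, 1.8 μm) was used at 100 μL/min with water and acetonitrile, each including 0.1% formic acid.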

Structure (SMILES)	RP-LC retention time
Cc1ccc(CNC(=O)C2CCN(c3nc4cccnc4s3)CC2)o1	704 s
Cc1ccc(S(=O)(=O)Nc2ccc(-c3cn4ccc(C)nc4n3)cc2)c(C)c1	679 s
CC1CCc2onc(C(=O)N3CCN(c4ccccn4)CC3)c2C1 (stereo not given)	650 s
Cc1nc(-c2cn(C)c3ncccc23)sc1C(=O)Nc1ccccc1Cl	1090 s
CC1CCN(C(=O)Cc2nnc3cc(-c4nc(C(C)C)no4)ccn23)CC1	770 s
CCN1CCCn2cc(S(=O)(=O)N3CCN(c4ccccc4Cl)CC3)cc2C1=O	912 s
O=S(=O)(c1cc(-c2nnc(C3CCC3)o2)co1)N1CCC(N2CCCCC2)CC1	642 s
CCc1ccc(-c2csc(NC(=O)Cc3csc(-c4ccccc4)n3)n2)cc1	1240 s
CCCn1c(=O)c(C)nc2cc(-c3noc(Cc4ccc(OC)c(OC)c4)n3)ccc21	930 s
O=C(Cc1ccc(Br)cc1)NC1CCN(c2cc(-c3ccc(Cl)cc3)[nH]n2)C1 (stereo not given)	854 s
Cc1cccc(N2CCN(C(=O)COc3ccc(NC(=O)C4CC4)cn3)CC2)c1	754 s
O=C(c1cc2ccccc2o1)N1CCC(CNS(=O)(=O)Cc2ccccc2Cl)CC1	880 s
Cc1ccc(-c2noc(-c3nn(-c4cccc(F)c4)ccc3=O)n2)cc1	956 s
CCc1nncn1C1CCN(S(=O)(=O)c2cccc(F)c2)CC1	678 s
O=C(Nc1nnc(SCc2cccc(Cl)c2)s1)c1ccccc1C(F)(F)F	1010 s
CCOc1cccc(-c2noc(Cn3c(=O)n(-c4ccc(C)cc4)c(=O)c4sccc43)n2)c1	1090 s
CC(CNC(=O)CCS(=O)(=O)c1ccc2c(c1)CCN2C(=O)C1CC1)c1ccccc1 (stereo not given)	840 s
CCOC(=O)C1CCCN(C(=O)Cc2cc(-c3ccc(F)cc3)on2)C1 (stereo not given)	820 s
COc1ccc(NC(=O)N(C)CC2CCOCC2)cc1Cl	712 s
Cc1cc(C(=O)NCC2CCN(C(=O)NC(C)(C)C)CC2)c(C)o1	699 s
CCN(Cc1ccccc1)C(=O)CN1C(=O)CCc2cc(Br)ccc21	1000 s
COc1ccc(CCNC(=O)N2CC(c3nc(-c4cccs4)no3)C2)cc1	773 s
O=C(NCC1CCCO1)C1CCN(S(=O)(=O)c2ccc(-c3noc(C4CC4)n3)cc2)CC1 (stereo not given)	789 s
O=C(c1cnc2ccccc2n1)N1CC(c2nc(-c3cccc(C(F)(F)F)c3)no2)C1	1030 s
O=C(Cc1nnc(-c2ccc3ncccc3c2)o1)NCc1ccc(F)cc1	677 s
Cc1cccc(Sc2nccnc2N2CCC(C(=O)NC3CCCCC3)CC2)c1	1150 s

Structure (SMILES)	RP-LC retention time
COc1ccccc1C(=O)N1CCC2(CC1)NC(=O)c1cc(Cl)ccc1N2C	787 s
Cn1cc(S(=O)(=O)N2CCC(C(=O)N3CCOCC3)CC2)cc1C(=O)N1CCCC1	626 s
Cc1ccc2ncn(C3CCN(S(=O)(=O)c4ccc(C)c(C)c4)CC3)c(=O)c2c1	998 s
Cc1ccc(CN(C)Cc2cc(=O)n3cc(Cl)ccc3n2)cc1	629 s
CCCCc1ccc(NC(=O)CSc2cc(N3CCN(c4ccccc4OC)CC3)ncn2)cc1	1310 s
Cc1cc(-c2nnc(C3CC3)o2)c(C)n1CC(=O)NCc1ccc(F)cc1Cl	840 s
COc1cc2c(Nc3ccc(Br)cc3F)ncnc2cc1OCC1CCN(C)CC1	644 s
CCOC(=O)CSc1nnc(-c2nnc(SCC(=O)OCC)n2CC)n1CC	758 s
CNC(=O)c1cn(-c2ccc(-c3nc(C(C)(C)C)no3)cn2)cn1	806 s
O=C(NCc1cccnc1)c1cn2ccnc(-c3ccccc3)c2n1	599 s
CCc1nc(N)n(CC(=O)NCc2ccccc2Cl)c(=O)c1C	616 s
O=C(c1cccs1)N1CCCC(c2ccnc(-c3ccccc3)n2)C1 (stereo not given)	1020 s
CC(C)n1cc(C2=CCN(C(=O)NC3CCCC3)CC2)c2cccnc21	878 s
CCOC(=O)c1c(C)c(C(=O)OCC)n(C)c1C	1080 s
O=C(Nc1ccc(Br)cc1F)C1CCN(S(=O)(=O)Cc2ccccc2)CC1	1000 s
CCOc1ccc(NC(=O)C2CC(=O)N(c3ccc4c(c3)CCN4C(C)=O)C2)cc1 (stereo not given)	750 s
O=C(NC1CC1)[C@@H]1C[C@H](Oc2cccnc2)CN1C(=O)C1CC1	528 s
O=C(Nc1ccccc1Cl)C(=O)c1cn(CC(=O)N2CCOCC2)c2ccccc12	1040 s
O=C(Nc1ccccc1Cl)N1CCN(c2cnn3cnnc3c2)CC1	625 s
CC(NC(=O)c1ccc(-c2ccsc2)nc1)c1ccc(F)cc1 (stereo not given)	908 s
Cc1nc2ccn(Cc3cccnc3)c(=O)c2cc1C(=O)N1CCOCC1	552 s
Cc1cccc(C)c1NC(=O)Cn1nc2n(c1=O)CCCC2	632 s
CCCN(CC1CCOC1)C(=O)c1cc(Cl)ccc1F (stereo not given)	844 s
O=C(COc1ccc([N+](=O)[O-])cc1Cl)N1CCOCC1	846 s
CN(C(=O)c1cn(-c2ccc(-c3nc(C4CC4)no3)cn2)cn1)C1CCCCC1	971 s

Second part, the molecule after the results:

RP-LC retention time	Structure (SMILES)
645 s	COc1ccc(F)cc1-c1cc(N2CCN(C(=O)NCC(C)C)CC2)ncn1
587 s	Cc1ccc(CS(=O)Cc2ccc(C(=O)NCCN(C)C)o2)cc1 (stereo not given)
861 s	CCN(Cc1ccccc1)C(=O)Cn1nc2c(N3CCC(C)CC3)nccn2c1=O
664 s	Cc1ccc(NC(=O)N2CCC(C)(C(=O)NCc3ccc(F)cc3)CC2)cc1Cl
933 s	O=C(Cc1ccccc1)Nc1nnc(CCSCCc2nnc(NC(=O)Cc3ccccc3)s2)s1
1110 s	CCOc1cccc(C2c3[nH]c4ccccc4c3CCN2C(=O)c2cccs2)c1 (stereo not given)
1220 s	O=S(=O)(c1ccc(-c2noc(-c3ccccc3Br)n2)cc1)N1CCCC1
637 s	Cn1c(N2CCN(C(=O)c3ccc4c(c3)OCO4)CC2)cc(=O)n(C)c1=O
555 s	O=c1ccc(-n2ccnc2)nn1CCNS(=O)(=O)Cc1cc(F)ccc1F
689 s	N#CC[C@@H](C1CCCC1)n1cc(-c2ncnc3[nH]ccc23)cn1
686 s	O=C(Cc1ccc(NC(=O)c2ccc(F)c(F)c2)cc1)NC1CC1
518 s	CN(C)[C@@H]1CN(Cc2cccc(C#N)c2)C[C@H]1CO
724 s	COC(=O)c1ccccc1NC(=O)CCc1c(-c2ccc(F)cc2)nc2ccccn12
861 s	CCn1cnc2ccc(-c3noc(-c4cccc(Cl)c4)n3)cc21
814 s	CCOC(=O)C1CCN(C(=O)c2ccc3ccnc(N4CCN(c5ccc(F)cc5)CC4)c3c2)CC1
766 s	O=C(c1ccc2c(c1)nnn2Cc1ccccc1)N1CCN(c2ncccn2)CC1
688 s	CC(C)(C)C(=O)NC1CCN(C(=O)c2ccc(F)cc2)C1 (stereo not given)
584 s	CC(C)CNC(=O)C1(CCO)CCN(c2ncccn2)C1 (stereo not given)
775 s	Cc1cc(N2CCN(S(=O)(=O)c3ccc(F)c(F)c3)CC2)nc(N2CCCCC2)n1
1070 s	CC(C)Cn1cc(S(=O)(=O)NCc2cccc(C(F)(F)F)c2)c2cccnc21

RP-LC retention time	Structure (SMILES)
772 s	Cc1ccc(CNC(=O)C2CCCN(c3cnc4nccnc4c3)C2)o1 (stereo not given)
826 s	CCCc1ccc(S(=O)(=O)N2CCC3(CC2)NCCN=C3NCc2ccc(OC)cc2)cc1
1170 s	Cc1cccc(-c2noc(Cn3c(=O)n(C(C)C)c(=O)c4ccccc43)n2)c1
1360 s	Cc1oc(-c2cccc(Cl)c2)nc1Cn1c(=O)n(C(C)C)c(=O)c2ccccc21
694 s	CC(C)Cn1c(=O)c2cc(C(=O)NCCC3CCN(C(C)C)CC3)nn2c2ccccc21
985 s	COc1cc(-c2nc(-c3ccc4c(c3)oc(=O)n4C)no2)cc(OC)c1OC
787 s	O=C(C1CCN(c2nc3ccc(-c4cncnc4)nc3s2)CC1)N1CCCCC1
568 s	Nc1ccc(-c2nc3ccc(-c4nc5ccc(N)cc5[nH]4)cc3[nH]2)cc1
795 s	Cc1ccccc1Nc1c(-c2ccc(N3CCOCC3)cc2)nc2ccc(Br)cn12
558 s	O=C(NCCN1CCOCC1)c1cc2cc(Cl)ccc2o1
663 s	O=C(O)c1nnn(-c2ccc(Cl)cc2)c1-c1ccncc1
727 s	Cc1cc(C(=O)N2CCC(c3nc(-c4ccccc4)no3)C2)n[nH]1 (stereo not given)
656 s	CCCc1cc(N2CCN(C(=O)C(C)Oc3ccccc3)CC2)nc2nnc(C)n12 (stereo not given)
762 s	Cc1ccc(N2CCC(NC(=O)C3CCC3)C2=O)cc1C (stereo not given)
689 s	O=C(c1csc(-c2ccnc(N3CCOCC3)c2)n1)N1CCCCCC1
716 s	CCCn1c(CCNC(=O)c2cc(C)cc(C)c2)nc2cccnc21
727 s	Cc1cccc(NC(=O)N2CCC3(C2)C(=O)Nc2ccccc23)c1 (stereo not given)
646 s	CCn1ccc2cc(S(=O)(=O)N3CCCC(C(=O)N4CCN(C)CC4)C3)ccc21 (stereo not given)
626 s	COc1ccccc1-c1ccc(N2CCN(C(=O)c3ccccc3Cl)CC2)nn1
